According to patent US10626144B2, “Peptide derivatives and uses thereof” (Nosopharm, priority 2014, dated 2020):
Read-outs that look alike come from different tables or passages of the source. Square brackets hold non-standard residues; d marks the D form. Peptide text beside a SMILES is read from it. * marks the point of attachment. ξ: configuration not given here. Phe(3,4-(OMe)2) = COc1ccc(C[C@H](N)C(=O)O)cc1OC; Abu(4,4,4-F3) = N[C@@H](CC(F)(F)F)C(=O)O; Phe(3-F) = N[C@@H](Cc1cccc(F)c1)C(=O)O; Phe(3-Me) = Cc1cccc(C[C@H](N)C(=O)O)c1; Dab(3S-OH) = NC[C@H](O)[C@H](N)C(=O)O; Phe(2-F) = N[C@@H](Cc1ccccc1F)C(=O)O; Lys(5ξ-OH) = NCC(O)CC[C@H](N)C(=O)O; ΔZArg = N=C(N)NCC/C=C(\N)C(=O)O; dOrn = NCCC[C@@H](N)C(=O)O; NH(CH2)4NH2 = NCCCCN*

How the values were obtained:
[1] = tested on: Ec #4 (GUE); test: MIC / resistance profile, multidrug-resistant strain; conditions: multidrug-resistant E. coli GUE
[2] = tested on: Kp #5 (6560); test: as above; conditions: multidrug-resistant K. pneumoniae 6560
[3] = target: N-type calcium channels (Cav2.2) (Rattus norvegicus (Rat), UniProt Q02294); test: biochemical; format: binding
[4] = tested on: Kp #3 (A33504); test: MIC / resistance profile, multidrug-resistant strain; conditions: multidrug-resistant K. pneumoniae A33504
[5] = tested on: Staphylococcus aureus ATCC 13709; test: MIC, broth microdilution (CLSI), reference strain; conditions: CAMHB
[6] = tested on: Ec #5 (DSM22315); test: MIC / resistance profile, multidrug-resistant strain; conditions: multidrug-resistant E. coli DSM22315
[7] = tested on: Acinetobacter baumannii ATCC 19606; test: MIC, broth microdilution (CLSI), reference strain; conditions: CAMHB
[8] = tested on: Kp #1 (NCTC13439); test: MIC / resistance profile, multidrug-resistant strain; conditions: multidrug-resistant K. pneumoniae NCTC13439
[9] = tested on: Pseudomonas aeruginosa ATCC 27853; test: MIC, broth microdilution (CLSI), reference strain; conditions: CAMHB
[10] = tested on: Kp #2 (DUB); test: MIC / resistance profile, multidrug-resistant strain; conditions: multidrug-resistant K. pneumoniae DUB
[11] = tested on: Kp #4 (ATCC BAA1904); test: as above; conditions: multidrug-resistant K. pneumoniae ATCC BAA1904
[12] = tested on: Klebsiella pneumoniae ATCC 43816; test: MIC, broth microdilution (CLSI), reference strain; conditions: CAMHB
[13] = tested on: Escherichia coli ATCC 25922; test: MIC, broth microdilution (CLSI), reference strain; conditions: CAMHB
[14] = Tolerability in mice, single i.v. bolus dose; conditions: female, CD-1, mouse, in vivo, iv
[15] = tested on: Klebsiella pneumoniae ATCC BAA2470; test: Murine peritonitis/sepsis model with analog 24.66 (Example 12); conditions: for Alive animals at 24 hrs: N=8
Protocol: Female CD-1 mice (weight, 25 g; Charles River) were used throughout the study. Six groups of 8 mice were inoculated by intraperitoneal (i.p.) injection of 0.5 ml Klebsiella pneumoniae ATCC BAA2470 suspension containing 10^8.1 CFU/ml in 0.9% sterile saline and 5% (wt/vol) mucin. One hour after bacterial challenge on day 0, mice were treated by intravenous (i.v.) route with the antibiotic solutions formulated in 0.9% sterile saline.
One group was administered with single bolus dose of tigecycline at 20 mg/kg. One group received no treatment.

[16] = tested on: Ec #3 (EGB957); test: MIC / resistance profile, multidrug-resistant strain; conditions: multidrug-resistant E. coli EGB957
[17] = tested on: Ec #1 (NCTC13476); test: as above; conditions: multidrug-resistant E. coli NCTC13476
[18] = tested on: Ec #2 (MIN); test: as above; conditions: multidrug-resistant E. coli MIN
[19] = tested on: Klebsiella pneumoniae ATCC BAA2470; test: Murine peritonitis/sepsis model with Odilorhabdin A (Example 13); format: in vivo, CD-1 mice
[20] = value in brackets, rat cerebral cortex, [125I]ω-conotoxin GVIA 0.001 nM, read-out: IC50 Cav2.2
[21] = class symbol, rat cerebral cortex, [125I]ω-conotoxin GVIA 0.001 nM, 30 minutes at room temperature, read-out: IC50 Cav2.2

C[C@H](NC(=O)[C@@H](NC(=O)[C@@H](N)CCCCN)[C@@H](O)CN)C(=O)NCC(=O)N[C@H](CCCN)C(=O)N1CCC[C@H]1C(=O)N[C@@H](Cc1cnc[nH]1)C(=O)N[C@@H](CCCCN)C(=O)N/C(=C\CCNC(=N)N)C(=O)O [24.66] (H-K[Dab(3S-OH)]AG[dOrn]PHK[ΔZArg]-OH)
MIC Ec#4 [1]: + (≤32 μg/mL) | MIC Kp #5 [2]: ++ (≤8 μg/mL) | IC50 ([3]; read-out: IC50 Cav2.2): > 0.3 µM | MIC Kp#3 [4]: ++ (≤8 μg/mL) | Sa: MIC Staphylococcus aureus ATCC 13709 [5]: + (≤32 μg/mL) | MIC Ec#5 [6]: + (≤32 μg/mL) | Ab: MIC Acinetobacter baumannii ATCC 19606 [7]: − (>32 μg/mL) | MIC Kp#1 [8]: ++ (≤8 μg/mL) | Pa: MIC Pseudomonas aeruginosa ATCC 27853 [9]: − (>32 μg/mL) | MIC Kp#2 [10]: ++ (≤8 μg/mL) | MIC Kp#4 [11]: ++ (≤8 μg/mL) | Kp: MIC Klebsiella pneumoniae ATCC 43816 [12]: ++ (≤8 μg/mL) | Ec: MIC Escherichia coli ATCC 25922 [13]: + (≤32 μg/mL) | LD50 at 5 days [14]: 494 mg/kg | Alive animals at 24 hrs ([15]; 6 mg/kg i.v. single bolus): 0 | Alive animals at 24 hrs ([15]; 12.5 mg/kg i.v. single bolus): 2 | Alive animals at 24 hrs ([15]; 25 mg/kg i.v. single bolus): 5 | Alive animals at 24 hrs ([15]; 50 mg/kg i.v. single bolus): 7 | ED50 ([15]; single i.v. bolus one hour after i.p. challenge, 10^8.1 CFU/ml, observed 24 hours): 20.4 mg/kg | MIC Ec#3 [16]: + (≤32 μg/mL) | MIC Ec#1 [17]: + (≤32 μg/mL)

COc1ccc(C[C@H](NC(=O)[C@@H]2CCCN2C(=O)[C@@H](CCCN)NC(=O)CNC(=O)[C@H](C)NC(=O)[C@@H](NC(=O)[C@@H](N)CCCCN)[C@@H](O)CN)C(=O)N[C@@H](CCCCN)C(=O)N/C(=C\CCNC(=N)N)C(=O)O)cc1OC [24.85] (H-K[Dab(3S-OH)]AG[dOrn]P[Phe(3,4-(OMe)2)]K[ΔZArg]-OH)
MIC Ec#2 [18]: + (≤32 μg/mL) | MIC Ec#4 [1]: ++ (≤8 μg/mL) | IC50 [3]: > 0.3 µM | IC50 [3, 20]: 1.2 µM | Sa: MIC Staphylococcus aureus ATCC 13709 [5]: + (≤32 μg/mL) | MIC Ec#5 [6]: + (≤32 μg/mL) | Ab: MIC Acinetobacter baumannii ATCC 19606 [7]: − (>32 μg/mL) | Pa: MIC Pseudomonas aeruginosa ATCC 27853 [9]: − (>32 μg/mL) | Ec: MIC Escherichia coli ATCC 25922 [13]: ++ (≤8 μg/mL) | MIC Ec#3 [16]: + (≤32 μg/mL) | MIC Ec#1 [17]: ++ (≤8 μg/mL)

C[C@H](NC(=O)[C@@H](NC(=O)[C@@H](N)CCCCN)[C@@H](O)CN)C(=O)NCC(=O)N[C@H](CCCN)C(=O)N1CCC[C@H]1C(=O)N[C@@H](CC(F)(F)F)C(=O)N[C@@H](CCCCN)C(=O)N/C(=C\CCNC(=N)N)C(=O)O [24.109] (H-K[Dab(3S-OH)]AG[dOrn]P[Abu(4,4,4-F3)]K[ΔZArg]-OH)
MIC Ec#2 [18]: + (≤32 μg/mL) | MIC Ec#4 [1]: + (≤32 μg/mL) | IC50 [3]: > 0.3 µM | IC50 [3, 20]: 1 µM | Sa: MIC Staphylococcus aureus ATCC 13709 [5]: ++ (≤8 μg/mL) | MIC Ec#5 [6]: + (≤32 μg/mL) | Ab: MIC Acinetobacter baumannii ATCC 19606 [7]: − (>32 μg/mL) | Pa: MIC Pseudomonas aeruginosa ATCC 27853 [9]: − (>32 μg/mL) | Ec: MIC Escherichia coli ATCC 25922 [13]: ++ (≤8 μg/mL) | MIC Ec#3 [16]: + (≤32 μg/mL) | MIC Ec#1 [17]: + (≤32 μg/mL)

C[C@H](NC(=O)[C@@H](NC(=O)[C@@H](N)CCCCN)[C@@H](O)CN)C(=O)NCC(=O)N[C@H](CCCN)C(=O)N1CCC[C@H]1C(=O)N[C@@H](Cc1ccccc1F)C(=O)N[C@@H](CCCCN)C(=O)N/C(=C\CCNC(=N)N)C(=O)O [24.151] (H-K[Dab(3S-OH)]AG[dOrn]P[Phe(2-F)]K[ΔZArg]-OH)
MIC Ec#2 [18]: + (≤32 μg/mL) | MIC Ec#4 [1]: + (≤32 μg/mL) | IC50 [3, 21]: > 0.3 µM | Sa: MIC Staphylococcus aureus ATCC 13709 [5]: ++ (≤8 μg/mL) | MIC Ec#5 [6]: ++ (≤8 μg/mL) | Ab: MIC Acinetobacter baumannii ATCC 19606 [7]: − (>32 μg/mL) | Pa: MIC Pseudomonas aeruginosa ATCC 27853 [9]: − (>32 μg/mL) | Ec: MIC Escherichia coli ATCC 25922 [13]: ++ (≤8 μg/mL) | MIC Ec#3 [16]: + (≤32 μg/mL) | MIC Ec#1 [17]: + (≤32 μg/mL)

C[C@H](NC(=O)[C@@H](NC(=O)[C@@H](N)CCCCN)[C@@H](O)CN)C(=O)NCC(=O)N[C@H](CCCN)C(=O)N1CCC[C@H]1C(=O)N[C@@H](Cc1cccc(F)c1)C(=O)N[C@@H](CCCCN)C(=O)N/C(=C\CCNC(=N)N)C(=O)O [24.152] (H-K[Dab(3S-OH)]AG[dOrn]P[Phe(3-F)]K[ΔZArg]-OH)
MIC Ec#2 [18]: + (≤32 μg/mL) | MIC Ec#4 [1]: + (≤32 μg/mL) | IC50 [3, 21]: > 0.3 µM | Sa: MIC Staphylococcus aureus ATCC 13709 [5]: ++ (≤8 μg/mL) | MIC Ec#5 [6]: ++ (≤8 μg/mL) | Ab: MIC Acinetobacter baumannii ATCC 19606 [7]: − (>32 μg/mL) | Pa: MIC Pseudomonas aeruginosa ATCC 27853 [9]: − (>32 μg/mL) | Ec: MIC Escherichia coli ATCC 25922 [13]: ++ (≤8 μg/mL) | MIC Ec#3 [16]: + (≤32 μg/mL) | MIC Ec#1 [17]: + (≤32 μg/mL)

Cc1cccc(C[C@H](NC(=O)[C@@H]2CCCN2C(=O)[C@@H](CCCN)NC(=O)CNC(=O)[C@H](C)NC(=O)[C@@H](NC(=O)[C@@H](N)CCCCN)[C@@H](O)CN)C(=O)N[C@@H](CCCCN)C(=O)N/C(=C\CCNC(=N)N)C(=O)O)c1 [24.153] (H-K[Dab(3S-OH)]AG[dOrn]P[Phe(3-Me)]K[ΔZArg]-OH)
MIC Ec#2 [18]: ++ (≤8 μg/mL) | MIC Ec#4 [1]: + (≤32 μg/mL) | IC50 [3, 21]: > 0.3 µM | Sa: MIC Staphylococcus aureus ATCC 13709 [5]: ++ (≤8 μg/mL) | MIC Ec#5 [6]: ++ (≤8 μg/mL) | Ab: MIC Acinetobacter baumannii ATCC 19606 [7]: − (>32 μg/mL) | Pa: MIC Pseudomonas aeruginosa ATCC 27853 [9]: − (>32 μg/mL) | Ec: MIC Escherichia coli ATCC 25922 [13]: ++ (≤8 μg/mL) | MIC Ec#3 [16]: ++ (≤8 μg/mL) | MIC Ec#1 [17]: ++ (≤8 μg/mL)

COc1ccc(C[C@H](NC(=O)[C@@H]2CCCN2C(=O)[C@@H](CCCN)NC(=O)CNC(=O)[C@H](C)NC(=O)[C@@H](NC(=O)[C@@H](N)CCCCN)[C@@H](O)CN)C(=O)N[C@@H](CCCCN)C(=O)N/C(=C\CCNC(=N)N)C(=O)O)cc1 [24.154] (H-K[Dab(3S-OH)]AG[dOrn]PY(Me)K[ΔZArg]-OH)
MIC Ec#2 [18]: ++ (≤8 μg/mL) | MIC Ec#4 [1]: ++ (≤8 μg/mL) | IC50 [3, 21]: > 0.3 µM | Sa: MIC Staphylococcus aureus ATCC 13709 [5]: ++ (≤8 μg/mL) | MIC Ec#5 [6]: ++ (≤8 μg/mL) | Ab: MIC Acinetobacter baumannii ATCC 19606 [7]: − (>32 μg/mL) | Pa: MIC Pseudomonas aeruginosa ATCC 27853 [9]: − (>32 μg/mL) | Ec: MIC Escherichia coli ATCC 25922 [13]: ++ (≤8 μg/mL) | MIC Ec#3 [16]: ++ (≤8 μg/mL) | MIC Ec#1 [17]: ++ (≤8 μg/mL)

N=C(N)NCC/C=C(\NC(=O)[C@H](CCC(O)CN)NC(=O)[C@H](Cc1c[nH]cn1)NC(=O)[C@@H]1CCCN1C(=O)[C@@H](CCCN)NC(=O)CNC(=O)[C@@H](NC(=O)[C@@H](NC(=O)[C@@H](N)CCCCN)[C@@H](O)CN)[C@@H](O)CN)C(=O)N[C@@H](CCC(O)CN)C(=O)NCCCCN (stereo partly drawn) [Odilorhabdin A] (H-K[Dab(3S-OH)][Dab(3S-OH)]G[dOrn]PH[Lys(5ξ-OH)][ΔZArg][Lys(5ξ-OH)]-{NH(CH2)4NH2}; N-terminus and C-terminus assumed)
IC50 [3, 20]: 0.025 µM | Alive animals at 24 hrs ([19]; 5 mg/kg i.v. single bolus, n=6): 0 | Alive animals at 24 hrs ([19]; 10 mg/kg i.v. single bolus, n=8): 2 | Alive animals at 24 hrs ([19]; 15 mg/kg i.v. single bolus, n=7): 4 | Alive animals at 24 hrs ([19]; 20 mg/kg i.v. single bolus, n=8): 6 | ED50 ([19]; single i.v. bolus one hour after i.p. challenge, 10^7.7 CFU/ml, observed 24 hours): 13.9 mg/kg

CN(C)c1cc(NC(=O)CNC(C)(C)C)c(O)c2c1C[C@H]1C[C@H]3[C@H](N(C)C)C(O)=C(C(N)=O)C(=O)[C@@]3(O)C(O)=C1C2=O [Tigecycline, tigecycline, reference compound]
Alive animals at 24 hrs ([19]; 15 mg/kg i.v. single bolus, n=8 (tigecycline)): 8 | Alive animals at 24 hrs ([15]; 20 mg/kg i.v. single bolus): 8
